The values below come from PMC10746280, “Bacterial efflux pump modulators prevent bacterial growth in macrophages and under broth conditions that mimic the host environment” (mBio, 2023).

The test system of series [1] is S. Typhimurium SL1344 (sifB::gfp) in RAW 264.7 macrophages. Description: SAFIRE macrophage assay: intracellular bacterial load (GFP signal within macrophages). Format: cell-based, Salmonella enterica serotype Typhimurium. Particulars: for IC50: Salmonella enterica, TYPHIMURIUM, RAW264.7, read-out: SAFIRE IC50. The procedure, abridged:
(§1)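 Compound or DMSO added 2 h after gentamicin-protected infection (MOI ~30, sifB::gfp SL1344) of RAW 264.7 cells and left to 18 h. Fixed cells imaged; intracellular GFP area per macrophage gives bacterial load, while retained adherent MitoTracker Red-stained macrophages define host toxicity.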

Series [2] has as its system RAW 264.7 macrophages. Description: SAFIRE macrophage assay: host toxicity (adherent macrophage count, morphology). Format: cell-based. Put shortly:
as §1

Series [3] has as its target T1, E. coli AcrB (Escherichia coli, UniProt P31224).
T1 construct: 4xHis (C); made in house; host or cells: E. coli BL21-Gold (DE3), plasmid derived from pSPORT1
Put plainly: Single-particle cryo-EM of AcrB-EPM complexes in nanodiscs. Particulars: "binding" protomer of the AcrB trimer; 10 µM EPM. Here is the method: To elucidate at high resolution how the EPM analogs interact with AcrB, we used cryo-electron microscopy (cryo-EM). We overproduced and purified the E. coli AcrB protein containing a 6×His tag at the C-terminus and reconstituted the protein into lipidic nanodiscs ([17]). We incubated the AcrB-nanodisc samples with the parent compound or with one of three structurally dissimilar EPMs analogs (CU032, CU232, CU244) to form AcrB-EPM complexes. We then solved single-particle cryo-EM structures of these complexes to resolutions between 2.63 and 2.82 Å (Table 2; Fig. 3).
AcrB was purified from E. coli BL21(DE3)ΔacrB/pSPORTΩacrB cells and reconstituted into lipidic nanodiscs. To assemble AcrB into nanodiscs, a mixture containing 10 µM AcrB, 30 µM membrane scaffold protein (1E3D1), and 900 µM E. coli total extract lipid was incubated for 15 min at room temperature. After, 0.8 mg/mL prewashed Bio-Beads (Bio-Rad) was added. The resultant mixture was incubated for 1 h on ice, followed by overnight incubation at 4°C. The protein-nanodisc solution was filtered through 0.22 µm nitrocellulose filter tubes to remove the Bio-Beads. To separate free nanodiscs from AcrB-loaded nanodiscs, the filtered protein-nanodisc solution was purified using a Superose six column (GE Healthcare) equilibrated with 20 mM Tris-HCl (pH 7.5) and 100 mM NaCl. Fractions corresponding to the size of the trimeric AcrB-nanodisc complex were collected for cryo-EM ([46]). We then incubated 0.6 mg/mL AcrB-nanodisc with 10 µM EPM for 2 h and solved structure of the AcrB-EPM complex using single-particle cryo-EM to a resolution of 2.20 Å.

In series [4] the test system is Bacillus subtilis expressing mNeongreen-FtsZ. Put plainly: Membrane voltage disruption assay (mNeongreen-FtsZ delocalization). Particulars: 150 µM, 15 min, LPM 5.5. The class given is cell-based. An excerpt: We therefore monitored membrane integrity in the presence of EPM analogs by evaluating membrane voltage with mNeongreen-FtsZ ([28][–][30]). The FtsZ protein localizes to the bacterial septum based on membrane potential, and rapid delocalization of fluorescent FtsZ reporters occurs when voltage across the membrane is disrupted ([31], [32]). We monitored mNeongreen-FtsZ localization in a Gram-positive bacterium, Bacillus subtilis, to eliminate the potentially confounding issue of the passage of EPM analogs through the outer membrane at different rates ([24], [33][–][36]).
To determine whether exposure to compound dislodges FtsZ from the cell septum, an overnight culture of Bacillus subtilis grown in LPM at pH 5.5 (LPM 5.5) expressing mNeonGreen-FtsZ (strain DK5092) was exposed to DMSO, CCCP (100 µM) or an EPM analog (150 µM) for 15 or 30 min, as indicated. Bacteria were immobilized on 1% agarose pads made with LPM under a coverslip. To set the threshold value for the FtsZ septal ring, mNeonGreen signal (excitation 488 nm, emission 525 nm) from at least 20 DMSO-treated cells was quantified using a CV1000 confocal microscope with a 100× oil, NA = 1.4 objective. A background-subtracted image was made by subtracting the median intensity from full original images. A signal threshold of ≥400 arbitrary units per pixel was set (Fig. 4B). Then, we manually confirmed that mNeonGreen signal above threshold was at the center of the bacterial rod. We examined 50 cells per sample from at least three biological replicates (≥150 cells per condition). A MATLAB program (https://github.com/Betterton-Lab/FtsZ-Quantification) counted the number of pixels above threshold per cell and averaged this value across all cells for each condition and this value is reported in the graph (Fig. 4C).

The mark [5] stands for this setting: 25 uM, 'Toxic' given instead of a score.
Where [6] appears, read: 5 uM compound, n=1, DMSO solvent control = 98, rifampicin 2 μg/mL = 65.
Where [7] appears, read: 25 uM compound, n=1, DMSO solvent control = 98, rifampicin 2 μg/mL = 65.
Setting [8] is: 5 uM compound, n=1, DMSO solvent control = 100.
Where [9] appears, read: 25 uM compound, n=1, DMSO solvent control = 100.

T1 sequence (P31224 whole entry): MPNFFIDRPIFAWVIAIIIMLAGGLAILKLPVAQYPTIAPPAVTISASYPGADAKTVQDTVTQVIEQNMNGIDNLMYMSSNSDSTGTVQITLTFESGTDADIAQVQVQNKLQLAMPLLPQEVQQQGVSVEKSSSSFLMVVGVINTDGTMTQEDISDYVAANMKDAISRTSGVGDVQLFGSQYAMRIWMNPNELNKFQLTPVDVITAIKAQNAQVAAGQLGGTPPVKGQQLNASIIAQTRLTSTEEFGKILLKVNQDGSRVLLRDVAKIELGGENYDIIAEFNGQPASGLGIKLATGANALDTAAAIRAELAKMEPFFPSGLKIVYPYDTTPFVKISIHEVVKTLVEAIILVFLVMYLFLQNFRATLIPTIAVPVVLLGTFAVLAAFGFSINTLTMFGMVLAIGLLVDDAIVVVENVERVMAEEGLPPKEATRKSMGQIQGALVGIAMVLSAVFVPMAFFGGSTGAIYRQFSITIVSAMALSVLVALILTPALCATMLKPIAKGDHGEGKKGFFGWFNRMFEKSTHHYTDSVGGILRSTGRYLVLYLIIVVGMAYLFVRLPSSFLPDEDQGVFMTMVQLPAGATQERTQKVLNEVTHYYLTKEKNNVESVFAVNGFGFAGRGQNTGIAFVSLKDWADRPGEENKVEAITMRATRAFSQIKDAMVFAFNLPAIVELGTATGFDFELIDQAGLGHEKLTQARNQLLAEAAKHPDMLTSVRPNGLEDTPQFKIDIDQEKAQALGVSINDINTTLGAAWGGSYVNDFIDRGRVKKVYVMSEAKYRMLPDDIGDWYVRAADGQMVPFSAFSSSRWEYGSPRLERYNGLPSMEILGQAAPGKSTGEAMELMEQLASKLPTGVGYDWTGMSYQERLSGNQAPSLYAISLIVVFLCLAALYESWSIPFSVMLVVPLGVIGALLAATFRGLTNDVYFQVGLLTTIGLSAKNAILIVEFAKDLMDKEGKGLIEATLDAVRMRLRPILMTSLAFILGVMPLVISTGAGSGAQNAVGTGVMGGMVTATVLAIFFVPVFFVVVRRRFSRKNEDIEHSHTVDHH

What is called IC50 is the midpoint of a concentration-inhibition curve. For `NC1CCN(CC(O)COc2ccc(Cl)c(Cl)c2)C1` (stereo not shown) [CU032], the “5 uM Avg Antibacterial Score” value in series [1] (5 uM, 'Toxic' given instead of a score) was 55. The “25 uM Avg Antibacterial Score” value in series [1] (setting [5]) was found to be 21. In addition, the IC50 in series [1] is 17.4 nM. For the same molecule, the “5 uM Avg Cell # Score” value in series [2] (5 uM) is 95. Further, the “25 uM Avg Cell # Score” value in series [2] (25 uM) was found to be 95. For the same molecule, the “binding site in AcrB (cryo-EM)” value in series [3] was “distal drug-binding pocket”. Also, the “effect on mNeongreen-FtsZ ring size / localization” value in series [4] was “no significant effect”.

With `NC1CCN(CC(O)COc2cccc(C(F)(F)F)c2)CC1` (stereo not shown) [CU232], the “5 uM Avg Antibacterial Score” value in series [1] (setting [6]) came out at 37. For the same molecule, the “25 uM Avg Antibacterial Score” value in series [1] (setting [7]) was 21. Moreover, the half-inhibitory concentration (IC50) in series [1] amounted to 6.9 nM. Besides, the “5 uM Avg Cell # Score” value in series [2] (setting [8]) came out at 124. Besides, the “25 uM Avg Cell # Score” value in series [2] (setting [9]) turned out to be 113. In addition, the “binding site in AcrB (cryo-EM)” value in series [3] is on record as “distal drug-binding site”. Further, the “effect on mNeongreen-FtsZ ring size / localization” value in series [4] is listed as “no significant effect”.

On to `OC(CN[C@H]1[C@@H]2CNC[C@@H]21)COc1cc(Cl)cc(Cl)c1` (stereo partly shown) [CU244], for which the “5 uM Avg Antibacterial Score” value in series [1] (setting [6]) is on record as 48. The “25 uM Avg Antibacterial Score” value in series [1] (setting [7]) was 19. Further, the IC50 in series [1] stood at 372 nM. Moreover, the “5 uM Avg Cell # Score” value in series [2] (setting [8]) amounted to 121. Besides, the “25 uM Avg Cell # Score” value in series [2] (setting [9]) worked out at 108. For the same molecule, the “binding site in AcrB (cryo-EM)” value in series [3] is recorded as “distal drug-binding site”.

Regarding `OC(COc1ccc(Cl)c(Cl)c1)CN1CCC(Nc2nccc(C(F)(F)F)n2)CC1` (stereo not shown) [EPM35], the “25 uM Avg Antibacterial Score” value in series [1] (setting [5]) is recorded as “Toxic”. The IC50 in series [1] amounted to 3450 nM. In addition, the “5 uM Avg Cell # Score” value in series [2] (5 uM) was 98; in series [2] (5 uM, listed as CU035) it was 107. For the same molecule, the “25 uM Avg Cell # Score” value in series [2] (25 uM) was 72; in series [2] (25 uM, listed as CU035) it was 134. Further, the “binding site in AcrB (cryo-EM)” value in series [3] is on record as “distal drug-binding pocket”. In addition, the “effect on mNeongreen-FtsZ ring size / localization” value in series [4] is recorded as “did not alter FtsZ localization”.
